# Reference: patent US8916593B2, “Alkoxy-substituted 2-aminopyridines as ALK inhibitors” (Pfizer Inc., priority 2010, dated 2014)
# Structures can show the parent of a compound that is named as a salt.
# Key:
# [1] = target: T1, ALK enzyme (Homo sapiens, UniProt Q9UM73); test: ALK enzymatic activity assay 1; format: biochemical
# T1 construct: purchased Invitrogen PV4185
# Description: ALK Enzymatic Activity Assay 1
# Compounds were added at a final concentration of 1% DMSO in half-log dilutions, starting at 20 μM final concentration. The reactions were initiated by the addition of 10 μL of peptide/ATP mix to 10 μL enzyme and 2 μL of compound in 384-well plate. […] On the 12-sipper chip, substrate and phosphorylated product were separated with an upstream voltage of −2650 V, a downstream voltage of −500 V, and a screen pressure of −1.5 psi. The relative peak heights of substrate and product were measured and ratios were calculated using HTS Well Analyzer Software version 5.2.43 from the manufacturer.
# [2] = target: T2, cMet enzyme (Homo sapiens, UniProt P08581); test: cMet enzymatic activity assay; format: biochemical; conditions: purified cMet enzyme 7.5 nM, ATP 17 μM (Km)
# T2 construct: RTC Lot#032006
# Description: cMet Enzymatic Activity Assay
# Compounds were added at a final concentration of 2% DMSO in half-log dilutions, starting at 20 μM final concentration. The reactions were initiated by addition of 10 μL of peptide/ATP mix to 10 μL enzyme and 5 μL of compound in 384-well plate. […] Substrate and phosphorylated product were separated with an upstream voltage of −2650 V, a downstream voltage of −500V, and a screen pressure of −1.5 psi. The relative peak heights of substrate and product were measured and ratios were calculated using HTS Well Analyzer Software version 5.2.43 from the manufacturer.
# [3] = target: T3, human recombinant wild-type ALK kinase domain (amino acids 1093-1411) (Homo sapiens, UniProt Q9UM73); test: ALK enzyme assay 2 (microfluidic mobility shift assay); format: biochemical;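 further: kinase reaction run 1 h at room temperature, conversion quantified by electrophoretic separation of fluorescent peptide substrate from phosphorylated product, about 15-20% turnover without inhibitor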
# T3 construct: ALK kinase domain (amino acids 1093-1411); made in house
# Description: The reactions were incubated for 1 h at room temperature, stopped by the addition of 0.1 M EDTA, pH 8, and the extent of reactions (˜15-20% conversion with no inhibitor) was determined after electrophoretic separation of the fluorescently labeled peptide substrate and phosphorylated product on an LabChip EZ Reader II (Caliper Life Sciences, Hopkinton, Mass.).
# [4] = target: EML4-ALK wt v1 in NIH-3T3 cells (Homo sapiens, UniProt Q9UM73)
# Sequence of EML4-ALK wt v1 in NIH-3T3 cells (Q9UM73 with tags, fused parts or gaps): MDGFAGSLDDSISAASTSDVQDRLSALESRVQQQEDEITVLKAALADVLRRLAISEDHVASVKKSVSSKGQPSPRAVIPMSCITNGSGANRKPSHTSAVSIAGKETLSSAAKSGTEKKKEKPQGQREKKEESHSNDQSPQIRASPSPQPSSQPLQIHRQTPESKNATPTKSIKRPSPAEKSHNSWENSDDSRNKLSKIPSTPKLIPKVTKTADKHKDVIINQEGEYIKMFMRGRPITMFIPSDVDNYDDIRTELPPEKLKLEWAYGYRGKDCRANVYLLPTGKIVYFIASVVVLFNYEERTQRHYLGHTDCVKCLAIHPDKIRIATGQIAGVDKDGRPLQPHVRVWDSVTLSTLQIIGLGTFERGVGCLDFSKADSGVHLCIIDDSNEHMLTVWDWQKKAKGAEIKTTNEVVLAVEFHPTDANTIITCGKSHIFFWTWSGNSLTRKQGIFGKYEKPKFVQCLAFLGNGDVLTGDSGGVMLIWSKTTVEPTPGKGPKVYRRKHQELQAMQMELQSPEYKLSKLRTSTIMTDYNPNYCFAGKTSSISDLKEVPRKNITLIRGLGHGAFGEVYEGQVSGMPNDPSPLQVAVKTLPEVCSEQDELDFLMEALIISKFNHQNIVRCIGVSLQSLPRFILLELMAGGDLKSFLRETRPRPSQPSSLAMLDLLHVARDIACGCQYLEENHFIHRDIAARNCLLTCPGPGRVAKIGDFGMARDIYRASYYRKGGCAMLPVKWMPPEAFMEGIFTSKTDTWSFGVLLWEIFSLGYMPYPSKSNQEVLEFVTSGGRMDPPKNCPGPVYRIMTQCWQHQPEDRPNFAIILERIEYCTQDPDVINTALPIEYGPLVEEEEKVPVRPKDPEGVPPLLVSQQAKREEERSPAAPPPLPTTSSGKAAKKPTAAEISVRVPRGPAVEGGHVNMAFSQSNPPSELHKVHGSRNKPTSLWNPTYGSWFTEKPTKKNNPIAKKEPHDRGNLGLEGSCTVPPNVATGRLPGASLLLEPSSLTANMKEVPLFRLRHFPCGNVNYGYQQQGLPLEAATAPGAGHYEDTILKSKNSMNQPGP
# T2 sequence (P08581 25-1390): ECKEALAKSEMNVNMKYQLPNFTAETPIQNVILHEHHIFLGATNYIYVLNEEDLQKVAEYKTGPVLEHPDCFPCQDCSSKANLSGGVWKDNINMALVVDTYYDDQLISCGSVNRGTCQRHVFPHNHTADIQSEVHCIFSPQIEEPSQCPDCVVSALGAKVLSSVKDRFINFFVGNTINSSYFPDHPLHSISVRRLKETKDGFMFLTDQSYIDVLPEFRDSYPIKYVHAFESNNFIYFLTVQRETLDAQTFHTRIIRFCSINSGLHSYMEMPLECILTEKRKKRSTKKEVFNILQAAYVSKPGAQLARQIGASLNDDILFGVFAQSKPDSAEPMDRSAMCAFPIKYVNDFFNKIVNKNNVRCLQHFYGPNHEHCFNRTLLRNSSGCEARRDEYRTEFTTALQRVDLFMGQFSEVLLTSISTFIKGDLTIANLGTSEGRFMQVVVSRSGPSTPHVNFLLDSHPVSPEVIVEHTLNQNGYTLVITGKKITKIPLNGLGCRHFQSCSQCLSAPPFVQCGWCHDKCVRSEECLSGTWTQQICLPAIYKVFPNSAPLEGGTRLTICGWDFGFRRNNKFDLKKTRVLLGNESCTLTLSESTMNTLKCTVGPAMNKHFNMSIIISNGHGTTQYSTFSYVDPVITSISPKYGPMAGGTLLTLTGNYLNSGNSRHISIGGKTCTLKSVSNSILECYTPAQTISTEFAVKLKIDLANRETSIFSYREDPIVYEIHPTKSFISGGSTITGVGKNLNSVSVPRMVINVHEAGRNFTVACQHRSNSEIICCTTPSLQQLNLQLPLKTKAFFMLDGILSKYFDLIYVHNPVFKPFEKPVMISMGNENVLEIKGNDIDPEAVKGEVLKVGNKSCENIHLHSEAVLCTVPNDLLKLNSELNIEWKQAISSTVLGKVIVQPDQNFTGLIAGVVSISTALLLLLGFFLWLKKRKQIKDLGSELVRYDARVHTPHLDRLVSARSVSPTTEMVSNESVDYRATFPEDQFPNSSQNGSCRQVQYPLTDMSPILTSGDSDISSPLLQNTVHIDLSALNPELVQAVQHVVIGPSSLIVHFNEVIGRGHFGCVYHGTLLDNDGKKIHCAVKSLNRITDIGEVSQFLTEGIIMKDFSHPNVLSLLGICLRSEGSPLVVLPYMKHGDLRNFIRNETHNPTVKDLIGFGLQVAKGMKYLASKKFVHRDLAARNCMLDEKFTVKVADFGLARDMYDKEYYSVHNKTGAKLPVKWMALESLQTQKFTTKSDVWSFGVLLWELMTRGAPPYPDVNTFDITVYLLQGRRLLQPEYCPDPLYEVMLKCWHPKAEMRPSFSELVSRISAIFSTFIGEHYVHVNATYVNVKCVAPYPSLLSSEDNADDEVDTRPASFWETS
# T3 sequence (Q9UM73 1093-1411): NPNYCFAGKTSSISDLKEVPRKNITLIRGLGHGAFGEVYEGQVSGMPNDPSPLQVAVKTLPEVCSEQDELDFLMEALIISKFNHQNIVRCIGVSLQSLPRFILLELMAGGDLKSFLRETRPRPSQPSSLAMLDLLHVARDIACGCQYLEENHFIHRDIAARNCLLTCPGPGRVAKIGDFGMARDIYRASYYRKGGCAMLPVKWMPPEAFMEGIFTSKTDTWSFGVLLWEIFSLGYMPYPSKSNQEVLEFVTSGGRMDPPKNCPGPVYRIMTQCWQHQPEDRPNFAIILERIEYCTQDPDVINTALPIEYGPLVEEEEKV
# T1 sequence (Q9UM73 19-1620): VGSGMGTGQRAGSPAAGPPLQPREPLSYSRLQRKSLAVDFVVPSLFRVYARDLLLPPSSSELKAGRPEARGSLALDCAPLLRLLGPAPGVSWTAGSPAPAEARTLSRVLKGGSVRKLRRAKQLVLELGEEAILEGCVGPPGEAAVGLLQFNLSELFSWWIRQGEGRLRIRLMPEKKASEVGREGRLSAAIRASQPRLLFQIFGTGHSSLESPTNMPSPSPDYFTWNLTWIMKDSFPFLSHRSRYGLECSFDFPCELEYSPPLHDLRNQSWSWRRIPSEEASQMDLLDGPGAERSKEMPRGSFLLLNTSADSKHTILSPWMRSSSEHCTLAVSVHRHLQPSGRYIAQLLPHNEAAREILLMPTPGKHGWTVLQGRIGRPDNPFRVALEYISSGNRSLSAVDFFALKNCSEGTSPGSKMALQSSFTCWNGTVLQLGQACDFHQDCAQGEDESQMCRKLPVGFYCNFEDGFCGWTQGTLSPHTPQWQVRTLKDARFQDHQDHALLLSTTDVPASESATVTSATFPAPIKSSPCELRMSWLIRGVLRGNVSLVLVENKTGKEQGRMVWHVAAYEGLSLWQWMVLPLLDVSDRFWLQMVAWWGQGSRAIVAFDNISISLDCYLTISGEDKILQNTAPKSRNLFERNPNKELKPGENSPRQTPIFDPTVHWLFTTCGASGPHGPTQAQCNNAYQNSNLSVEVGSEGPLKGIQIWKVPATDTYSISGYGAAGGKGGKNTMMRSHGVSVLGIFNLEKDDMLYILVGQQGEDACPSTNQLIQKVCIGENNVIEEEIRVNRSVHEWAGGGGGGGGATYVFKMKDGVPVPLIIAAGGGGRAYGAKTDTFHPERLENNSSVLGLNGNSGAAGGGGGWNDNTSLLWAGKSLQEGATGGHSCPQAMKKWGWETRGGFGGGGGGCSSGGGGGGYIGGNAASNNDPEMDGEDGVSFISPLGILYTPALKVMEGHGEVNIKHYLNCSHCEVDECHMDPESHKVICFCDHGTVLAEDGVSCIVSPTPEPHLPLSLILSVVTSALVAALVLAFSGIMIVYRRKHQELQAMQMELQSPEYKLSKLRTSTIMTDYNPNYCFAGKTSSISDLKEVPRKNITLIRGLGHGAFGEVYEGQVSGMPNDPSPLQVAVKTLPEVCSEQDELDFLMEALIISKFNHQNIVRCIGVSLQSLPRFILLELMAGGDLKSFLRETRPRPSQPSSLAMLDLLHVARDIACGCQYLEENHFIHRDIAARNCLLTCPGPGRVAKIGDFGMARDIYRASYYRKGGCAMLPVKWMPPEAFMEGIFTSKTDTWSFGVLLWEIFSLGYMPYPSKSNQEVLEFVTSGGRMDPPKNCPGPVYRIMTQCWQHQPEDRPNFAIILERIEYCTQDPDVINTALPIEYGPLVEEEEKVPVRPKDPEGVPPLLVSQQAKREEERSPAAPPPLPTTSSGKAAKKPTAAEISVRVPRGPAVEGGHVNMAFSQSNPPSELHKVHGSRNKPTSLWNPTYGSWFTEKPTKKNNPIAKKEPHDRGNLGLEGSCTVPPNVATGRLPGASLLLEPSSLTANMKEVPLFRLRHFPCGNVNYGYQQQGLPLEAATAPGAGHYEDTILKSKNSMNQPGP
Compound,IC50 [1] [nM],IC50 [2] [nM],Ki [3] [nM],IC50 [4] [nM]
"COc1ncc(F)cc1[C@@H](C)Oc1cc(-c2ccnn2C)cnc1N [Example 34, 3-[(1R)-1-(5-fluoro-2-methoxypyridin-3-yl)ethoxy]-5-(1-methyl-1H-pyrazol-5-yl)pyridin-2-amine]",71.1,> 17800,3.8,302
"CC(Oc1cc(-c2ccnn2C)nnc1N)c1cc(F)ccc1-n1cccn1 (stereo not drawn) [Example 55, 4-{1-[5-fluoro-2-(1H-pyrazol-1-yl)phenyl]ethoxy}-6-(1-methyl-1H-pyrazol-5-yl)pyridazin-3-amine]",87.6,> 20000,43,1760
"COc1ccncc1-c1cnc(N)c(OC(C)c2cc(F)ccc2OC)c1 (stereo not drawn) [Example 50, 5-[1-(5-fluoro-2-methoxyphenyl)-ethoxy]-4′-methoxy-3,3′-bipyridin-6-amine]",50.2,5070,0.739,58.4
"CC(Oc1cc(-c2ccnn2C)cnc1N)c1cc(F)cc2scnc12 (stereo not drawn) [Example 42, 3-[1-(6-fluoro-1,3-benzothiazol-4-yl)ethoxy]-5-(1-methyl-1H-pyrazol-5-yl)pyridin-2-amine]",58.1,> 15900,2.05,263
"COc1ccc(F)cc1C(C)Oc1cc(-c2c(C)noc2C)cnc1N (stereo not drawn) [Example 54, 5-(3,5-dimethylisoxazol-4-yl)-3-[1-(5-fluoro-2-methoxyphenyl)-ethoxy]pyridin-2-amine]",47.2,> 18200,1.3,194
"COc1ccc(F)cc1C(C)Oc1cc(-c2cnnn2CCO)cnc1N (stereo not drawn) [Example 2, 2-(5-{6-amino-5-[1-(5-fluoro-2-methoxyphenyl)ethoxy]-pyridin-3-yl}-1H-1,2,3-triazol-1-yl)ethanol]",135,> 20000,220,> 1000
"C=Cn1nnc(C)c1-c1cnc(N)c(OC(C)c2cc(F)ccc2OC)c1 (stereo not drawn) [Example 1, 3-[1-(5-Fluoro-2-methoxyphenyl)ethoxy]-5-(4-methyl-1-vinyl-1H-1,2,3-triazol-5-yl)pyridin-2-amine]",61.4,> 18800,2.9,144
"Cc1n[nH]cc1-c1cnc(N)c(OC(C)c2cc(F)ccc2Cl)c1 (stereo not drawn) [Example 45, 3-[1-(2-chloro-5-fluorophenyl)ethoxy]-5-(3-methyl-1H-pyrazol-4-yl)pyridin-2-amine]",75.6,4160,1.57,106
"COc1ccc(F)cc1[C@@H](C)Oc1cc(-c2c(C)nn(CC(O)CO)c2C)cnc1N (stereo partly drawn) [Example 26, 3-(4-{6-amino-5-[(1R)-1-(5-fluoro-2-methoxyphenyl)-ethoxy]pyridin-3-yl}-3,5-dimethyl-1H-pyrazol-1-yl)propane-1,2-diol]",24.1,4300,< 0.313,4.54
"COc1ccc(F)cc1C(C)Oc1cc(-c2cncc(S(C)(=O)=O)c2)cnc1N (stereo not drawn) [Example 4, 5-[1-(5-fluoro-2-methoxyphenyl)ethoxy]-5′-(methylsulfonyl)-3,3′-bipyridin-6-amine]",51.7,7610,1.93,72.4
"COc1ccc(F)cc1[C@@H](C)Oc1cc(-c2cccnc2CO)cnc1N [Example 27, {6′-amino-5′-[(1R)-1-(5-fluoro-2-methoxyphenyl)-ethoxy]-3,3′-bipyridin-2-yl}methanol]",47.3,> 15400,3.1,138
"CC(Oc1cc(-c2ccnn2C)cnc1N)c1cc(F)ccc1-n1cccn1 (stereo not drawn) [Example 37, 3-{1-[5-fluoro-2-(1H-pyrazol-1-yl)phenyl]-ethoxy}-5-(1-methyl-1H-pyrazol-5-yl)pyridin-2-amine]",70.3,8090,1.55,147
"COc1ccc(F)cc1C(C)Oc1cc(-c2c(C)nn(C)c2C)cnc1N (stereo not drawn) [Example 7, 3-[1-(5-fluoro-2-methoxyphenyl)ethoxy]-5-(1,3,5-trimethyl-1H-pyrazol-4-yl)pyridin-2-amine]",44.9,10200,0.536,33
"COc1ncc(F)cc1C(C)Oc1cc(-c2ccnn2C)cnc1N (stereo not drawn) [Example 33, 3-[1-(5-fluoro-2-methoxypyridin-3-yl)ethoxy]-5-(1-methyl-1H-pyrazol-5-yl)pyridin-2-amine monohydrochloride]",89.2,> 20000,4.8,380
"COc1ccc(F)cc1C(C)Oc1nc(-c2nccn2C)cnc1N (stereo not drawn) [Example 60, 3-[1-(5-fluoro-2-methoxyphenyl)ethoxy]-5-(1-methyl-1H-imidazol-2-yl)pyrazin-2-amine]",67.3,> 20000,6.4,555
"COc1ccc(F)cc1[C@@H](C)Oc1cc(-c2c(C)nn(CCO)c2C)cnc1N [Example 53, 2-(4-{6-amino-5-[(1R)-1-(5-fluoro-2-methoxyphenyl)-ethoxy]pyridin-3-yl}-3,5-dimethyl-1H-pyrazol-1-yl)ethanol]",27,4440,0.401,23.3
"COc1ccc(F)cc1C(C)Oc1cc(-c2cc(Cl)nnc2N)cnc1N (stereo not drawn) [Example 17, 4-{6-amino-5-[1-(5-fluoro-2-methoxyphenyl)ethoxy]-pyridin-3-yl}-6-chloropyridazin-3-amine]",133,13200,11,672
"COc1ccc(F)cc1C(C)Oc1cc(-c2cccn(C)c2=O)cnc1N (stereo not drawn) [Example 15, 6′-amino-5′-[1-(5-fluoro-2-methoxyphenyl)ethoxy]-1-methyl-3,3′-bipyridin-2(1H)-one]",177,> 20000,16,904
"CC(Oc1cc(-c2ccnn2C)cnc1N)c1cc(F)ccc1C#N (stereo not drawn) [Example 36, 2-(1-{[2-amino-5-(1-methyl-1H-pyrazol-5-yl)pyridin-3-yl]oxy}ethyl)-4-fluorobenzonitrile monohydrochloride]",120,> 15800,22,862
"Cc1n[nH]c(C)c1-c1cnc(N)c(OC(C)c2cc(F)ccc2-n2cccn2)c1 (stereo not drawn) [Example 52, 5-(3,5-dimethyl-1H-pyrazol-4-yl)-3-{1-[5-fluoro-2-(1H-pyrazol-1-yl)phenyl]-ethoxy}pyridin-2-amine]",73.3,10400,1.1,14.5
"COc1ccc(F)cc1C(C)Oc1nc(-c2cn(C)cn2)cnc1N (stereo not drawn) [Example 58, 3-[1-(5-fluoro-2-methoxyphenyl)ethoxy]-5-(1-methyl-1H-imidazol-4-yl)pyrazin-2-amine]",86.5,> 20000,1.3,159
"CC(Oc1cc(-c2ccnn2C)cnc1N)c1cc(F)ccc1-c1ncco1 (stereo not drawn) [Example 62, 3-{1-[5-fluoro-2-(1,3-oxazol-2-yl)phenyl]ethoxy}-5-(1-methyl-1H-pyrazol-5-yl)pyridin-2-amine]",50.5,2810,4.52,191
"COc1ccc(F)cc1[C@@H](C)Oc1cc(-c2ccnn2C)nnc1N [Example 56, 4-[(1R)-1-(5-fluoro-2-methoxyphenyl)ethoxy]-6-(1-methyl-1H-pyrazol-5-yl)pyridazin-3-amine]",47.5,> 20000,6.4,361
"COc1ccc(F)cc1C(C)Oc1nc(-c2cn(C)c(C)n2)cnc1N (stereo not drawn) [Example 57, 5-(1,2-dimethyl-1H-imidazol-4-yl)-3-[1-(5-fluoro-2-methoxyphenyl)ethoxy]pyrazin-2-amine]",58.7,> 20000,5.4,245
"COc1ccc(F)cc1C(C)Oc1cc(-c2ccnn2CCO)cnc1N (stereo not drawn) [Example 11, 2-(5-{6-amino-5-[1-(5-fluoro-2-methoxyphenyl)ethoxy]-pyridin-3-yl}-1H-pyrazol-1-yl)ethanol]",52.2,> 20000,6.3,245
"COc1ccc(F)cc1C(C)Oc1cc(-c2cnn(C)c2CO)cnc1N (stereo not drawn) [Example 12, (4-{6-amino-5-[1-(5-fluoro-2-methoxyphenyl)ethoxy]-pyridin-3-yl}-1-methyl-1H-pyrazol-5-yl)methanol]",70.6,8420,2.1,194
"Cc1n[nH]cc1-c1cnc(N)c(OC(C)c2cc(F)ccc2-n2cccn2)c1 (stereo not drawn) [Example 47, 3-{1-[5-fluoro-2-(1H-pyrazol-1-yl)phenyl]-ethoxy}-5-(3-methyl-1H-pyrazol-4-yl)pyridin-2-amine]",70.5,2850,< 0.2,45.7
